One assay addresses CpCDPK1 (Cryptosporidium parvum (strain Iowa II), UniProt A3FQ16). Kind of assay: biochemical. Particulars: Table 1; KinaseGlo, Syntide 2 peptide substrate; read-out: CpCDPK1 IC50. On the technique in general: In Kinase-Glo more light means more ATP remaining.
The target of another assay is TgCDPK1 (Toxoplasma gondii, UniProt Q9BJF5). Kind of assay: biochemical. To be noted: read-out: TgCDPK1 IC50.
[1] abbreviates: Table 1, KinaseGlo, Syntide 2 peptide substrate.

Where two headings read alike, the source gives them in different places.

CpCDPK1, sequence (A3FQ16 1-538): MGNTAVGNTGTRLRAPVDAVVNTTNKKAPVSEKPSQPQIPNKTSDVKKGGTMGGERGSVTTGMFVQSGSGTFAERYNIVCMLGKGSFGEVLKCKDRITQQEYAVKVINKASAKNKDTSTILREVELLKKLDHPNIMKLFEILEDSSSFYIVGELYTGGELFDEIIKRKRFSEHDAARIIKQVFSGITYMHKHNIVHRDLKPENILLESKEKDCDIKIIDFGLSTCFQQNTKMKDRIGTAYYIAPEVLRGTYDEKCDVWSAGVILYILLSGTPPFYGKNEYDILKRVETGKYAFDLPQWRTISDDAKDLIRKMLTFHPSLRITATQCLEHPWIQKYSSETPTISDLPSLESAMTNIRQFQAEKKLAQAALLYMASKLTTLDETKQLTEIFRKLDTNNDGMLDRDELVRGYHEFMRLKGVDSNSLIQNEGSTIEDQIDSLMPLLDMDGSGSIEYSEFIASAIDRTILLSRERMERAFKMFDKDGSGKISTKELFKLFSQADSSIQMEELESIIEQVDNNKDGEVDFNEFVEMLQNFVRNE
TgCDPK1, sequence (Q9BJF5 1-507): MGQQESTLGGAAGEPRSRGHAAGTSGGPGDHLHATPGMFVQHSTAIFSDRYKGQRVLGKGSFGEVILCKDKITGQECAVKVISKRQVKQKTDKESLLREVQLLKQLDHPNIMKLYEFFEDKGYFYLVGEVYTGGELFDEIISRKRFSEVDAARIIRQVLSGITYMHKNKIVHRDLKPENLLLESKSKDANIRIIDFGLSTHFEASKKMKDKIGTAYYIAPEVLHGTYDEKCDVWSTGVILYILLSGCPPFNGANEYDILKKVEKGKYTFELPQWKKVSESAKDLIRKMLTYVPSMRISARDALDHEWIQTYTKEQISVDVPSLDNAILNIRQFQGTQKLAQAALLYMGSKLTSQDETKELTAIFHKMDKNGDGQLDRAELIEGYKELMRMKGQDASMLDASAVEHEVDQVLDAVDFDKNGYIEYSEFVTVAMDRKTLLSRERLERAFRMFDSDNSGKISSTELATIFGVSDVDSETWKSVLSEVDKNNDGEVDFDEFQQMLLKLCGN

`Cn1ncc2cc(-c3nn(C(C)(C)C)c(N)c3C(N)=O)ccc21` [Compound 30, 5-amino-1-(tert-butyl)-3-(1-methyl-1H-indazol-5-yl)-1H-pyrazole-4-carboxamide]: the 50% inhibitory concentration (IC50) (in general, the midpoint of a concentration-inhibition curve) on CpCDPK1 stood at 150 nM; at TgCDPK1, 32 nM.

Consider `Cn1c(=O)[nH]c2cc(-c3nn(C(C)(C)C)c(N)c3C(N)=O)ccc21` [Compound 31, 5-amino-1-(tert-butyl)-3-(1-methyl-2-oxo-2,3-dihydro-1H-benzo[d]imidazol-5-yl)-1H-pyrazole-4-carboxamide], for which the IC50 was more than 3000 nM on CpCDPK1 and 640 nM on TgCDPK1 (setting [1]).

In the case of `Cc1nc2cc(-c3nn(C(C)(C)C)c(N)c3C(N)=O)ccc2n1C` [Compound 32, 5-amino-1-(tert-butyl)-3-(1,2-dimethyl-1H-benzo[d]imidazol-5-yl)-1H-pyrazole-4-carboxamide], the IC50 on CpCDPK1 and on TgCDPK1 (setting [1]) was more than 3000 nM each time.

Turning to `CC(C)(C)n1nc(-c2ccc3oc(=O)ccc3c2)c(C(N)=O)c1N` [Compound 34, 5-amino-1-(tert-butyl)-3-(2-oxo-2H-chromen-6-yl)-1H-pyrazole-4-carboxamide], the IC50 at CpCDPK1 was 200 nM; at TgCDPK1 it was 32 nM.

For the molecule `CC(C)(C)n1nc(-c2ccc3ccccc3n2)c(C(N)=O)c1N` [Compound 35, 5-amino-1-(tert-butyl)-3-(quinolin-2-yl)-1H-pyrazole-4-carboxamide], the IC50 on CpCDPK1 stood at 290 nM; on TgCDPK1, 49 nM.

Take `CCOc1ccc2nc(-c3nn(C(C)(C)C)c(N)c3C(N)=O)ccc2c1` [Compound 36, 5-amino-1-(tert-butyl)-3-(6-ethoxyquinolin-2-yl)-1H-pyrazole-4-carboxamide]: the concentration for half-maximal inhibition (IC50) at CpCDPK1 amounted to 390 nM; on TgCDPK1, 350 nM.

For `CC(C)(C)n1nc(-c2ccc3ncccc3c2)c(C(N)=O)c1N` [Compound 37, 5-amino-1-(tert-butyl)-3-(quinolin-6-yl)-1H-pyrazole-4-carboxamide], the 50% inhibitory concentration (IC50) at CpCDPK1 amounted to 70 nM; on TgCDPK1, 10 nM.

For `CC(C)(C)n1nc(-c2cnc3cc(OC(F)(F)F)ccc3c2)c(C(N)=O)c1N` [Compound 1565, 5-amino-1-tert-butyl-3-(7-(trifluoromethoxy)quinolin-3-yl)-1H-pyrazole-4-carboxamide], the figures for the half-maximal inhibitory concentration (IC50) on CpCDPK1 and on TgCDPK1 (setting [1]) were 38 nM and 31 nM, respectively.

Take `COCCOc1ccc2cc(-c3nn(C(C)(C)C)c(N)c3C(N)=O)cnc2c1` [Compound 1570, 5-amino-1-(tert-butyl)-3-(7-(2-methoxyethoxy)quinolin-3-yl)-1H-pyrazole-4-carboxamide]: the half-inhibitory concentration (IC50) at CpCDPK1 came out at 255 nM; at TgCDPK1 (setting [1]), 258 nM.

Consider `CCOc1ccc2cc(-c3nn(CCO)c(N)c3C(N)=O)cnc2c1` [Compound 1577, 5-amino-3-(7-ethoxyquinolin-3-yl)-1-(2-hydroxyethyl)-1H-pyrazole-4-carboxamide], for which the IC50 at CpCDPK1 worked out at 89 nM; at TgCDPK1 (setting [1]) it was 181 nM.

In the case of `CC(C)(C)COc1ccc2cc(-c3nn(C(C)(C)C)c(N)c3C(N)=O)cnc2c1` [Compound 1587, 5-amino-1-(tert-butyl)-3-(7-(neopentyloxy)quinolin-3-yl)-1H-pyrazole-4-carboxamide], the IC50 was 490 nM on CpCDPK1 and 175 nM at TgCDPK1 (setting [1]).

For `CCOc1ccc2cc(-c3n[nH]c(N)c3C(N)=O)cnc2c1` [Compound 1593, 5-amino-3-(7-ethoxyquinolin-3-yl)-1H-pyrazole-4-carboxamide], the values for the IC50 at CpCDPK1 and at TgCDPK1 (setting [1]) were 67 nM and 164 nM, respectively.

Take `CCOc1ccc2cc(-c3nn(CCOC)c(N)c3C(N)=O)cnc2c1` [Compound 1594, 5-amino-3-(7-ethoxyquinolin-3-yl)-1-(2-methoxyethyl)-1H-pyrazole-4-carboxamide]: the values for the IC50 at CpCDPK1 and at TgCDPK1 (setting [1]) were 172 nM and 321 nM, respectively.

For the molecule `CCOc1ccc2cc(-c3nn(CCOC)c(N)c3C(=O)NCCOC)cnc2c1` [Compound 1595, 5-amino-3-(7-ethoxyquinolin-3-yl)-N,1-bis(2-methoxyethyl)-1H-pyrazole-4-carboxamide], the concentration for half-maximal inhibition (IC50) on CpCDPK1 came out at 398 nM; at TgCDPK1 (setting [1]) it was 723 nM.

As to `CCOc1ccc2cc(-c3nn(C(C(C)C)C(C)C)c(N)c3C(N)=O)cnc2c1` [Compound 1607, 5-amino-1-(2,4-dimethylpentan-3-yl)-3-(7-ethoxyquinolin-3-yl)-1H-pyrazole-4-carboxamide], the results for the half-maximal inhibitory concentration (IC50) at CpCDPK1 and at TgCDPK1 (setting [1]) were 20 nM and 99 nM, respectively.

Regarding `CCOc1ccc2cc(-c3nn4c(c3C(N)=O)NC(=O)C4)cnc2c1` [Compound 1609, 6-(7-ethoxyquinolin-3-yl)-2-oxo-2,3-dihydro-1H-imidazo[1,2-b]pyrazole-7-carboxamide], the IC50 on CpCDPK1 worked out at 577 nM; at TgCDPK1 (setting [1]), 1430 nM.

As to `CCOc1ccc2cc(-c3nn(C(C)C(C)O)c(N)c3C(N)=O)cnc2c1` (centres unmarked) [Compound 1611, 5-amino-3-(7-ethoxyquinolin-3-yl)-1-(3-hydroxybutan-2-yl)-1H-pyrazole-4-carboxamide], the IC50 at CpCDPK1 stood at 6 nM; on TgCDPK1 (setting [1]) it was 19 nM.

Regarding `CCOc1ccc2cc(-c3nn(C4CCOC4)c(N)c3C(N)=O)cnc2c1` (centres unmarked) [Compound 1612, 5-amino-3-(7-ethoxyquinolin-3-yl)-1-(tetrahydrofuran-3-yl)-1H-pyrazole-4-carboxamide], the 50% inhibitory concentration (IC50) at CpCDPK1 amounted to 3 nM; at TgCDPK1 (setting [1]), 10 nM.

As for `CCOc1ccc2cc(-c3nn(C(C)C(C)(C)O)c(N)c3C(N)=O)cnc2c1` (centres unmarked) [Compound 1626, 5-amino-3-(7-ethoxyquinolin-3-yl)-1-(3-hydroxy-3-methylbutan-2-yl)-1H-pyrazole-4-carboxamide], the half-maximal inhibitory concentration (IC50) turned out to be 13 nM on CpCDPK1 and 30 nM at TgCDPK1 (setting [1]).

On to `CCOc1ccc2cc(-c3nn(C(C)CO)c(N)c3C(N)=O)cnc2c1` (centres unmarked) [Compound 1627, 5-amino-3-(7-ethoxyquinolin-3-yl)-1-(1-hydroxypropan-2-yl)-1H-pyrazole-4-carboxamide], for which the IC50 at CpCDPK1 was 9 nM; at TgCDPK1 (setting [1]), 20 nM.

On to `CCOc1ccc2cc(-c3nn(C(CO)CO)c(N)c3C(N)=O)cnc2c1` [Compound 1629, 5-amino-1-(1,3-dihydroxypropan-2-yl)-3-(7-ethoxyquinolin-3-yl)-1H-pyrazole-4-carboxamide], for which the values for the IC50 at CpCDPK1 and on TgCDPK1 (setting [1]) were 52 nM and 120 nM, respectively.

In the case of `CC(C)(C)n1nc(-c2cnc3cc(OC4CCC4)ccc3c2)c(C(N)=O)c1N` [Compound 1630, 5-amino-1-(tert-butyl)-3-(7-cyclobutoxyquinolin-3-yl)-1H-pyrazole-4-carboxamide], the IC50 on CpCDPK1 stood at 4 nM; on TgCDPK1 (setting [1]), 3 nM.

Regarding `CCOc1ccc2cc(-c3nn(C(C)C4CC4)c(N)c3C(N)=O)cnc2c1` (centres unmarked) [Compound 1631, 5-amino-1-(1-cyclopropylethyl)-3-(7-ethoxyquinolin-3-yl)-1H-pyrazole-4-carboxamide], the IC50 on CpCDPK1 stood at 5 nM; at TgCDPK1 (setting [1]) it was 10 nM.

On to `CCOc1ccc2cc(-c3nn(C4CCCCCC4)c(N)c3C(N)=O)ccc2n1` [Compound 1632, 5-amino-1-cycloheptyl-3-(2-ethoxyquinolin-6-yl)-1H-pyrazole-4-carboxamide], for which the half-maximal inhibitory concentration (IC50) on CpCDPK1 turned out to be 6 nM; on TgCDPK1 (setting [1]), 7 nM.

In the case of `CCOc1ccc2cc(-c3nn(C(C)C(C)(C)O)c(N)c3C(N)=O)ccc2n1` (centres unmarked) [Compound 1636, 5-amino-3-(2-ethoxyquinolin-6-yl)-1-(3-hydroxy-3-methylbutan-2-yl)-1H-pyrazole-4-carboxamide], the IC50 at CpCDPK1 is 18 nM; on TgCDPK1 (setting [1]), 58 nM.

The values are drawn from US9518026B2, “5-aminopyrazole-4-carboxamide inhibitors of CDPK1 from T. gondii and C. parvum” (UNIVERSITY OF WASHINGTON THROUGH ITS CENTER FOR …, priority 2013, dated 2016).
